Assays:
Format in all cases: cell-based
CFTR ΔF508 mutant [1] = target: T1, CFTR ΔF508 mutant (Homo sapiens, UniProt P13569, DEL508-508); assay: YFP-halide influx assay for the CFTR-ΔF508 mutation (384 well, FDSS/μCell); conditions: CFBE41o- cells, CFTR-ΔF508, 1×D-PBS, fluorescence after 36 seconds
T1 construct: expressed in transfected cells; host or cells: CFBE41o- (adenoviral transduction)
Procedure, shortened: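 Potentiator read-out as 1−F/F0, F taken 36 s after iodide addition, EC50 fitted against compound concentration. Cells: CFBE41o- expressing ΔF508 CFTR plus halide-sensitive YFP via adenovirus, rescued by 27 °C for 24 h or 24 h modulator at 37 °C.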

CFTR ΔF508 mutant [2] = target: T1, CFTR ΔF508 mutant; assay: YFP-halide influx assay for the CFTR-ΔF508 mutation, PBS buffer (96 well); conditions: CFBE41o- cells, forskolin 10.67 μM
Description: The YFP halide influx assay measures the functionality of the cystic fibrosis Transmembrane Conductance regulator (CFTR) channels in the cystic fibrosis bronchial epithelium cell line CFBE41o-. The assay is used to evaluate the capacity of compounds to increase the open probability of existing CFTR channels in the membrane. It makes use of the observation that the yellow fluorescent protein (YFP) variant YFP H148Q, I152L has its fluorescence substantially quenched by halide ions like Cl^− and I^−. (Galietta, Haggie, & Verkman, 2001) (Nagai, et al., 2002)
For this purpose, CFBE41o-cells are seeded in 96 well plates (6000 CFBE cells/well). One day after seeding, the CFBE cells are transduced with adenoviral vectors that direct the expression of the CFTR ΔF508 mutant and of the YFP reporter. Cells are incubated at 27° C., 5% CO2 for 24 hours so as to allow for the proper folding and migration to the membrane of the CFTR channel or treated with a CFTR modulator during 24 hours at 37° C.
The I^− induced quenching of fluorescence is recorded immediately after injection of I^− for 7 seconds. The capacity of a compound to increase the channel opening is directly correlated with the decrease in fluorescence, and is expressed as (1-(fluorescence after 7 seconds (F)/fluorescence before injection (F0))) and an EC50 can be derived from a (1-F/F0) vs compound concentration plot.

CFTR G551D mutant = target: T2, CFTR G551D mutant (Homo sapiens, UniProt P13569, G551D); assay: YFP-halide influx assay for the CFTR-G551D mutation; conditions: HEK293 cells, forskolin 10.67 μM
T2 construct: expressed in transfected cells; host or cells: HEK293 (reverse transfection with plasmid)
Procedure, shortened: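 HEK293 cells reverse-transfected with CFTR G551D and YFP H148Q/I152L/F47L halide sensor, expressed 24 h at 37 °C. Iodide-induced fluorescence quench recorded 7 s after I− injection; response = 1−F/F0, with EC50 from plot against compound concentration.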

T2 sequence (P13569 whole entry G551D): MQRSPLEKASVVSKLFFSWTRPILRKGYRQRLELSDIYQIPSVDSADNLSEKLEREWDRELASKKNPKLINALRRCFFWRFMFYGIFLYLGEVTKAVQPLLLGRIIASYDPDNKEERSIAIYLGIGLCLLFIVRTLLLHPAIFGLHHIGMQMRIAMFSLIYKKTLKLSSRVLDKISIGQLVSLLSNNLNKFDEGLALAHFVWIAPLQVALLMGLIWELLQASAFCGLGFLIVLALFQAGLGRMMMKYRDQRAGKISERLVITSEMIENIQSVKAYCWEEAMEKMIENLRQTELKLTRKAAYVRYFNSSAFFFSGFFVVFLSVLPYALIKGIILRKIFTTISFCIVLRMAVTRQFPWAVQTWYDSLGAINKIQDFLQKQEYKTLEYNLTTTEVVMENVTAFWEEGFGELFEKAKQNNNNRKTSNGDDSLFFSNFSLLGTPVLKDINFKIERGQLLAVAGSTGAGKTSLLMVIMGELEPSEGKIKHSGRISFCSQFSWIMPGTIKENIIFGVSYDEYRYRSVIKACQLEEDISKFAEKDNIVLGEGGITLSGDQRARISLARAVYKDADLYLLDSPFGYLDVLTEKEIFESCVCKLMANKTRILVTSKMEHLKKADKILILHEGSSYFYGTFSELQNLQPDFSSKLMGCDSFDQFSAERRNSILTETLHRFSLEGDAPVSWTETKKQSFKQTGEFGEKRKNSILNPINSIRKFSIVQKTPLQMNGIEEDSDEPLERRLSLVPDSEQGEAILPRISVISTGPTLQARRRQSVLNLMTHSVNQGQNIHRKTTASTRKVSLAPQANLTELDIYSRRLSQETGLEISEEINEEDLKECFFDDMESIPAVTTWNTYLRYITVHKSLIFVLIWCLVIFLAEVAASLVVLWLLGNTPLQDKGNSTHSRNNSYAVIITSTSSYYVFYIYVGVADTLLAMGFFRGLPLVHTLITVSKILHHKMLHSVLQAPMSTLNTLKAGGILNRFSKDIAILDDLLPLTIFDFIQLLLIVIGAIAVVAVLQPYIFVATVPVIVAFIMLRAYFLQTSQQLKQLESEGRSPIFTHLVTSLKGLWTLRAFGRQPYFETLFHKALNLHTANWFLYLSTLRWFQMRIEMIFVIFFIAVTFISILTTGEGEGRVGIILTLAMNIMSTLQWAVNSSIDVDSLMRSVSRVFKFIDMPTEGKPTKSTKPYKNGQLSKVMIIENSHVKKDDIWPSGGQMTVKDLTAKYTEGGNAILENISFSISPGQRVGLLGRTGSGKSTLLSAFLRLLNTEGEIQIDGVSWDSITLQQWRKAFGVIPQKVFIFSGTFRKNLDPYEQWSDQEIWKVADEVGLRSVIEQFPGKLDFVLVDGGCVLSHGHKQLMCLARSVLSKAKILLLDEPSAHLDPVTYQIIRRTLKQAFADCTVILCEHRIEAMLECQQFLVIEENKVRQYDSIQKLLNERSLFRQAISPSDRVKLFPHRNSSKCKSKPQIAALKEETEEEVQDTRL
T1 sequence (P13569 with tags, fused parts or gaps DEL508-508): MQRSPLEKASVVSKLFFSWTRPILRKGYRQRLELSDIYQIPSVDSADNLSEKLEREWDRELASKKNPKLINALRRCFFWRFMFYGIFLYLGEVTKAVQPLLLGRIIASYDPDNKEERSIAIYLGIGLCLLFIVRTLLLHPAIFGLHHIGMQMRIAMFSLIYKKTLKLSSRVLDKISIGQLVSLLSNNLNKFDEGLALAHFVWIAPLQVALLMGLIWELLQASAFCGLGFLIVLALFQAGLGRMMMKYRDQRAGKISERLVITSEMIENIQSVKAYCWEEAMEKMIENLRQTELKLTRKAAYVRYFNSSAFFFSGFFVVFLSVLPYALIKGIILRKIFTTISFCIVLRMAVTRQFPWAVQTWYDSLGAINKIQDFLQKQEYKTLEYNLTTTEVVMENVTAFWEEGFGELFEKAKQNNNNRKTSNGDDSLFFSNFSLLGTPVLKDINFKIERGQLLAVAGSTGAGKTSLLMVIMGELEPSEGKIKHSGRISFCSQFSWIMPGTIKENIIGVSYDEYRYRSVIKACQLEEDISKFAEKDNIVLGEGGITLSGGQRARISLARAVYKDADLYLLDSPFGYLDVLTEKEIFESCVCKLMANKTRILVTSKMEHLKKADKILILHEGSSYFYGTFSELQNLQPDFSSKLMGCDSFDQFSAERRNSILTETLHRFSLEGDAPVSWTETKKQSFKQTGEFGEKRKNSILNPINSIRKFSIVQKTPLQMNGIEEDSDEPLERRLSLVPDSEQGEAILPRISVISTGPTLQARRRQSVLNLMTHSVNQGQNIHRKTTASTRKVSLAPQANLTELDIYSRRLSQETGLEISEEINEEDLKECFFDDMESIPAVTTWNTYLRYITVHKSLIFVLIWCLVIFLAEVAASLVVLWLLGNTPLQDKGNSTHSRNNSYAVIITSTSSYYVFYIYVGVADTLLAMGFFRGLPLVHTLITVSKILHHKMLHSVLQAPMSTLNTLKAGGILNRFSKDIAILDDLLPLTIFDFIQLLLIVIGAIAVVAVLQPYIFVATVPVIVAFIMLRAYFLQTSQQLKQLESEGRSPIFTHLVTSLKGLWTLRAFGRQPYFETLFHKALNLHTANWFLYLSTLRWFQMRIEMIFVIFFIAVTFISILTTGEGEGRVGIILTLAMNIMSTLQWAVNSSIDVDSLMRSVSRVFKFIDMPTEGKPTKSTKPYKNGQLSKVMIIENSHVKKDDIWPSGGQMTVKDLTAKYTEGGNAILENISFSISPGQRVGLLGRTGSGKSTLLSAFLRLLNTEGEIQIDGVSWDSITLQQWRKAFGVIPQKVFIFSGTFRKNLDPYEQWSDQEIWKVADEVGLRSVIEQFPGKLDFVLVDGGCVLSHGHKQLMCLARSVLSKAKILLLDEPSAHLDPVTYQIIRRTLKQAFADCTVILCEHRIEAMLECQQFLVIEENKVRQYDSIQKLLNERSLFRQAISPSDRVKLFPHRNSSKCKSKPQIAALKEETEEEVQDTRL

Row | EC50 (CFTR ΔF508 mutant [1]) [nM] | EC50 (CFTR ΔF508 mutant [2]) [nM] | EC50 (CFTR G551D mutant) [nM] | EC50 (CFTR G551D mutant; class symbol) [nM] | SMILES
1 | 26.5 | 36.2 | 295 | – | NC(=O)c1cc(S(=O)(=O)c2ccc(Cl)cc2)sc1NC(=O)C1(O)CC1 [Compound 225, 5-(4-chlorophenylsulfonyl)-2-(1-hydroxycyclopropanecarboxamido) thiophene-3-carboxamide]
2 | 39.3 | 41.5 | 472 | – | NC(=O)c1cc(S(=O)(=O)c2cccc(F)c2)sc1NC(=O)C1(O)CC1 [Compound 227, 5-(3-fluorophenylsulfonyl)-2-(1-hydroxycyclopropanecarboxamido) thiophene-3-carboxamide]
3 | 29 | 20.5 | 93 | – | CC(C)c1ccccc1S(=O)(=O)c1cc(C(N)=O)c(NC(=O)C2(O)CC2)s1 [Compound 228, 2-(1-hydroxycyclopropanecarboxamido)-5-(2-isopropylphenylsulfonyl) thiophene-3-carboxamide]
4 | 31.8 | 26 | 676 | – | CN(Cc1ccc(F)cc1)S(=O)(=O)c1cc(C(N)=O)c(NC(=O)C2(O)CC2)s1 [Compound 231, 5-(N-(4-fluorobenzyl)-N-methylsulfamoyl)-2-(1-hydroxycyclopropanecarboxamido) thiophene-3-carboxamide]
5 | 25.2 | 46.4 | 6660 | – | CN(c1ccc(F)cc1)S(=O)(=O)c1cc(C(N)=O)c(NC(=O)C2(O)CC2)s1 [Compound 236, 5-(N-(4-fluorophenyl)-N-methylsulfamoyl)-2-(1-hydroxycyclopropanecarboxamido) thiophene-3-carboxamide]
6 | 9.6 | 17.3 | 163 | – | NC(=O)c1cc(S(=O)(=O)N2CCOc3ccccc32)sc1NC(=O)C1(O)CC1 [Compound 242, 5-(2H-benzo[b][1,4]oxazin-4(3H)-ylsulfonyl)-2-(1-hydroxycyclopropanecarboxamido) thiophene-3-carboxamide]
7 | – | 727 | – | > 1000 | CC(C)(O)C(=O)Nc1sc(S(=O)(=O)c2cc(F)ccc2O)cc1C(N)=O [Compound 296, 5-(5-fluoro-2-hydroxyphenylsulfonyl)-2-(2-hydroxy-2-methylpropanamido) thiophene-3-carboxamide]
8 | – | 367 | 3330 | – | Cc1ccc(S(=O)(=O)c2cc(C(N)=O)c(NC(=O)C(C)(C)O)s2)cn1 [Compound 297, 2-(2-Hydroxy-2-methyl-propionylamino)-5-(6-methyl-pyridine-3-sulfonyl)-thiophene-3-carboxylic acid amide]
9 | – | 915 | 3330 | – | Cc1cc(S(=O)(=O)c2cc(C(N)=O)c(NC(=O)C(C)(C)O)s2)ccn1 [Compound 299, 2-(2-Hydroxy-2-methyl-propionylamino)-5-(2-methyl-pyridine-4-sulfonyl)-thiophene-3-carboxylic acid amide]
10 | – | 174 | – | > 1000 | COc1ccccc1S(=O)(=O)c1cc(C(N)=O)c(NC(=O)C(C)(C)O)s1 [Compound 301, 2-(2-hydroxy-2-methylpropanamido)-5-(2-methoxyphenylsulfonyl) thiophene-3-carboxamide]
11 | – | 254 | – | > 1000 | COCCN(C1CC1)S(=O)(=O)c1cc(C(N)=O)c(NC(=O)C(C)(C)O)s1 [Compound 306, 5-(N-cyclopropyl-N-(2-methoxyethyl)sulfamoyl)-2-(2-hydroxy-2-methylpropanamido) thiophene-3-carboxamide]
12 | – | 234 | 1030 | – | CC(C)(O)C(=O)Nc1sc(S(=O)(=O)N2CCC(F)(F)CC2)cc1C(N)=O [Compound 308, 5-(4,4-difluoropiperidin-1-ylsulfonyl)-2-(2-hydroxy-2-methylpropanamido) thiophene-3-carboxamide]
13 | – | 115 | 2860 | – | CC1(C)CN(S(=O)(=O)c2cc(C(N)=O)c(NC(=O)C(C)(C)O)s2)C1 [Compound 309, 5-(3,3-Dimethyl-azetidine-1-sulfonyl)-2-(2-hydroxy-2-methyl-propionylamino)-thiophene-3-carboxylic acid amide]
